Reference: patent publication US5622839A (ZymoGenetics, Inc., priority 1995, dated 1997)
Values belong to the compound of their own block, whether it stands above or below them.

Columns and labels:
[1] = target: T1, human calcitonin receptor (Homo sapiens, UniProt P30988); experiment: [Ca2+]i response of BHK cells expressing cloned calcitonin receptor to calcitonin and extracellular calcium (fura-2); format: cell-based; settings: for average peak [Ca2+]i response vs receptor number: each cell line expressing the calcitonin receptor
T1 construct: Hollex encoded a protein of 474 amino acids; expressed in transfected cells; host or cells: BHK 570 / BHK/KZ10-20-48 (baby hamster kidney) stably transfected with pHollex
T1 sequence (P30988 25-474): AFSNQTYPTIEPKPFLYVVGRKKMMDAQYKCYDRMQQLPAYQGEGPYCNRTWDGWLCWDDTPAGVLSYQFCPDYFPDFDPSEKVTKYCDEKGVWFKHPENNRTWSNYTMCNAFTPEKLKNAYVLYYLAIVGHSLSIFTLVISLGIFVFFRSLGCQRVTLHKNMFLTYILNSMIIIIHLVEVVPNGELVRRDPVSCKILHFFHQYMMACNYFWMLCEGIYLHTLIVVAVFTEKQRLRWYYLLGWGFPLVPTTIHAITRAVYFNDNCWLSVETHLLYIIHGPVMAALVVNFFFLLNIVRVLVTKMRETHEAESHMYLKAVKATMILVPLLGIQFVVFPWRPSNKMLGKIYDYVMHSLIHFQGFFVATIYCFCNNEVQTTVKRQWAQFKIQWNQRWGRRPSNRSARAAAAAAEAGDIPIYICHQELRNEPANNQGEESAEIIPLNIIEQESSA
Procedure: (§1) BHK cells expressing the cloned calcitonin receptor were assayed to determine their response to extracellular calcium. Cells were washed three times with a buffer (140 mM NaCl, 5 mM KCl, 0.5 mM MgCl2, 0.5 mM CaCl2 (concentration varied in some experiments), 10 mM glucose, 10 mM HEPES, pH 7.4) made using high purity salts (Aldrich, Milwaukee, Wis.) and sterile water (Baxter, McGaw Park, Ill.). Cells were loaded with fura-2 AM (Molecular Probes Inc.) (10 μg/ml) for 30 minutes essentially as described above, then washed an additional three times. Slides were mounted at room temperature on an inverted microscope (EPIPHOT, Nikon), and a field of cells (typically 20-30 cells) was located using a 40× Nikon fluor objective. The ratio of fura-2 emission at excitation wavelengths of 340 and 380 nm was recorded every 5 seconds. Individual cells were analyzed on a computer workstation (Sun Microsystems) using a software system designed for ratio imaging (Inovision). The concentration of calcium chloride in buffers was determined by comparison to calcium standards on a calcium analyzer (Nova Biomedical Corp. Waltham, Mass.). All experiments were reproduced three to eight times. Fura-2 ratio 340 nm to 380 nm values (R) were converted to [Ca^2+ ]i concentrations after calibration of the instrument using the formula: calcium (nm)=2240[R-0.3)/(20-R)]. Basal [Ca^2+ ]i concentrations were typically 80-150 nm. The peak fura-2 ratios 340/380 of individual cells exposed to 20 nm salmon calcitonin followed by 25 mM calcium chloride were averaged for some experiments and converted to [Ca^2+ ]i concentrations. Standard error was calculated at a 99% level using a Z score of 2.58 (n>30).

Control BHK cell lines = experiment: [Ca2+]i response of control (calcitonin receptor-negative) BHK cells to extracellular calcium; format: cell-based, baby hamster
Procedure: as §1, with “Fura-2 ratio 340 nm to 380 nm values (R) were converted to [Ca^2+ ]i concentrations after calibration of the instrument using the formula: calcium (nm)=2240[R-0.3)/(20-R)]. Basal [Ca^2+ ]i concentrations were typically 80-150 nm. The peak fura-2 ratios 340/380 of individual cells exposed to 20 nm salmon calcitonin followed by 25 mM calcium chloride were averaged for some experiments and converted to [Ca^2+ ]i concentrations.” left out

bone resorption = settings: patients given long term treatment; Azria 1989; cited from earlier work
[2] = target: T1, human calcitonin receptor; experiment: Intracellular calcium response of Hollex1/Hollex2 cells (fura-2 imaging); format: cell-based
BHK/Zem228R = experiment: Binding/competition assay with BHK/Zem228R cells (negative control); design: species or system baby hamster
Procedure: A pool of transfectants expressing the plaex 1 was tested for receptor-mediated binding to calcitonin using a competition assay. Hollex1 was used as a positive control and BHK cells transfected with Zem228R were used as a negative control.
The cells were plated at a density of 1×10^5 cells/well in a 24-well cell culture dish and allowed to grow for 48 hours at 37° C. and 5% CO2 in growth medium (described in previous examples). The cells were rinsed in binding medium as described in Example IIE. Three hundred microliters of hot binding medium containing 10 nM hCT and 5 μCi/ml ^125 I hCT. Cold competition was achieved by adding unlabelled hCT to a final concentration of 1 μM were added to appropriate wells. The cells were incubated 1.5 hours at room temperature. Unincorporated radioactivity was removed by three washes with PBS. Five hundred microliters of 1N NaOH was added to each well to solublize the cells. Each sample was counted on a gamma counter.

[3] = 25 mM extracellular calcium chloride, about 700,000 receptors/cell
[4] = cell lines expressing 100,000 and 150,000 receptors/cell

[Ca2+]i response to 73 mM KCl ([1]; instead of CaCl2, about 700,000 receptors/cell): no effect
Compound: [Cl-].[K+] [KCl]

Compound: [Ca+2].[Cl-].[Cl-] [calcium chloride]
magnitude of [Ca2+]i response relative to that induced by calcitonin [1, 3]: comparable to that induced by calcitonin
time for response to return to an elevated basal level [1, 3]: about 20 minutes
effect of calcitonin pretreatment on magnitude of response to extracellular calcium ([1]; 25 mM, about 700,000 receptors/cell, p<0.01): not significantly altered
concentration of maximum response ([1]; 700,000 receptors/cell): approximately 14 mM
EC50 ([1]; 700,000 receptors/cell, double reciprocal plot, read-out: effective concentration for half-maximal response): 8 to 10 mM
smallest increase in extracellular calcium giving a significant response ([1]; 700,000 receptors/cell, increase over basal (1.3 mM)): 2 mM
[Ca2+]i response to millimolar increases in extracellular calcium ([1]; BHK cells expressing recombinant calcitonin receptor): rapid and sustained elevation in [Ca^2+ ]i
[Ca2+]i response to 25 mM extracellular calcium for two minutes followed by continuous wash ([1]; about 700,000 receptors/cell): rapid and transient increase in [Ca^2+ ]i
[Ca2+]i response to 25 mM extracellular calcium chloride ([1]; about 700,000 receptors/cell, with or without calcitonin pretreatment): rapid and sustained increase in [Ca2+ ]i
[Ca2+]i response [1, 4]: increases in [Ca^2+ ]i
average peak [Ca2+]i response vs receptor number [1]: proportional to the average number of receptors per cell
response to extracellular calcium (Control BHK cell lines; Control BHK cell lines): no response
sensitivity to changes in extracellular calcium (Control BHK cell lines; three calcitonin receptor-negative BHK cell lines): no sensitivity

[Ca2+]i response [1, 4]: increases in [Ca^2+ ]i
effect of calcitonin pretreatment on response to extracellular calcium [1, 4]: marked potentiation
cells with a calcium response ([2]; Hollex1 cells): 30-70%
cells with a calcium response ([2]; Hollex2 cells): 1-5%
Compound: calcitonin
resistance cases not accompanied with antibody formation (bone resorption): approximately 50%
average peak [Ca2+]i response vs receptor number [1]: proportional to the average number of receptors per cell

Compound: human calcitonin: human calcitonin (hCT), natural peptide hormone ligand of the calcitonin receptor
hot (BHK/Zem228R; 10 nM hCT and 5 μCi/ml 125I hCT): 147 cpm
hot/cold (BHK/Zem228R; plus unlabelled hCT 1 μM): 105 cpm
